In article PMC4832243, “Discovery of Potent VEGFR-2 Inhibitors based on Furopyrimidine and Thienopyrimidne Scaffolds as Cancer Targeting Agents” (Scientific Reports, 2016):

Experiments:
HOP-92 = assay: NCI 60 cell line panel (SRB), HOP-92; format: cell-based; conditions: Homo sapiens; HOP-92, Non-Small Cell Lung Cancer; single dose of 10 μM; read-out: Cell Growth Percent
BT-549 = assay: NCI 60 cell line panel (SRB), BT-549; format: cell-based; conditions: Homo sapiens; BT-549, Breast Cancer; single dose of 10 μM; read-out: Cell Growth Percent
T-47D = assay: NCI 60 cell line panel (SRB), T-47D; format: cell-based; conditions: Homo sapiens, T47D, Breast Cancer, single dose of 10 μM, read-out: Cell Growth Percent
UACC-257 = assay: NCI 60 cell line panel (SRB), UACC-257; format: cell-based; conditions: Homo sapiens; UACC-257, Melanoma; single dose of 10 μM; read-out: Cell Growth Percent
SF-268 = assay: NCI 60 cell line panel (SRB), SF-268; format: cell-based; conditions: Homo sapiens; SF-268, CNS Cancer; single dose of 10 μM; read-out: Cell Growth Percent
UACC-62 = assay: NCI 60 cell line panel (SRB), UACC-62; format: cell-based; conditions: Homo sapiens; UACC-62, Melanoma; single dose of 10 μM; read-out: Cell Growth Percent
A549/ATCC = assay: NCI 60 cell line panel (SRB), A549/ATCC; format: cell-based; conditions: Homo sapiens, Non-Small Cell Lung Cancer, single dose of 10 μM, read-out: Cell Growth Percent
c-Src = c-Src (Homo sapiens, UniProt P12931); assay: In vitro multiple-kinase inhibition assay, c-Src; format: biochemical
Method: In vitro multiple-kinase inhibition assay. […] Kinase enzymatic activity of the tested compounds was evaluated against a reference kinase inhibitor at 10 μM (Table 2).
The multiple kinases activity at single dose concentration of 10 μM was performed, c-Kit, c-Raf, c-Src, RET served as the enzyme source. […] Kinase-Glo Plus Luminescence kinase assay kit (Promega#V3772), ADP-Glo Luminescence assay kit was used for c-kit assay (Supplementary). […]
mM MgCl2, 0.1 mg/ml BSA, 1 mM DTT, 10 µM ATP, Kinase substrate and VEGFR. After the enzymatic reaction, 50 µl of Kinase-Glo Plus Luminescence kinase assay solution (Promega) was added to each reaction and incubate the plate for 5 minutes at room temperature.
Luminescence signal was measured using a BioTek Synergy 2 microplate reader. VEGFR activity assays were performed in duplicate at each concentration.
The luminescence data were analyzed using the computer software, Graphpad Prism. The difference between luminescence intensities in the absence of VEGFR (Lut) and in the presence of VEGFR (Luc) was defined as 100 % activity (Lut – Luc). Using luminescence signal (Lu) in the presence of the compound, % activity was calculated as:
% activity = {(Lut - Lu)/(Lut - Luc)}×100%, where Lu= the luminescence intensity in the […]
IC50 determination for inhibitor against VEGFR was calculated. The values of % activity versus a series of compound concentrations (1 nM - 10 nM - 100 nM - 1 µM - 10 µM) were then […]
or Hill coefficient. The IC50 value was determined by the concentration causing a half-maximal […]
In vitro multiple-kinase inhibition assay
Luminescence signal was measured using a BioTek Synergy 2 microplate reader […]
The luminescence data were analyzed using the same computer software and the same protocol

CCRF-CEM = assay: NCI 60 cell line panel (SRB), CCRF-CEM; format: cell-based; conditions: Homo sapiens, Leukemia, single dose of 10 μM, read-out: Cell Growth Percent
RXF 393 = assay: NCI 60 cell line panel (SRB), RXF 393; format: cell-based; conditions: Homo sapiens; RXF 393, Renal Cancer; single dose of 10 μM; read-out: Cell Growth Percent
SN12C = assay: NCI 60 cell line panel (SRB), SN12C; format: cell-based; conditions: Homo sapiens, Renal Cancer, single dose of 10 μM, read-out: Cell Growth Percent
KM12 = assay: NCI 60 cell line panel (SRB), KM12; format: cell-based; conditions: Homo sapiens; KM12, Colon Cancer; single dose of 10 μM; read-out: Cell Growth Percent
[1] = system: HUVEC umbilical vein endothelial cells; assay: In vitro HUVEC anti-proliferative assay (alamarBlue); format: cell-based; conditions: Homo sapiens, HUVEC proliferation at 10 μM, 72 hours; for activity at 10 µM: read-out: % Cell growth; for inhibition at 10 µM: read-out: % Cell inhibition
OVCAR-8 = assay: NCI 60 cell line panel (SRB), OVCAR-8; format: cell-based; conditions: Homo sapiens; OVCAR-8, Ovarian Cancer; single dose of 10 μM; read-out: Cell Growth Percent
NCI-H23 = assay: NCI 60 cell line panel (SRB), NCI-H23; format: cell-based; conditions: Homo sapiens; NCI-H23, Non-Small Cell Lung Cancer; single dose of 10 μM; read-out: Cell Growth Percent
UO-31 = assay: NCI 60 cell line panel (SRB), UO-31; format: cell-based; conditions: Homo sapiens; UO-31, Renal Cancer; single dose of 10 μM; read-out: Cell Growth Percent
IGROV1 = assay: NCI 60 cell line panel (SRB), IGROV1; format: cell-based; conditions: Homo sapiens, IGROV-1; IGROV1, Ovarian Cancer; single dose of 10 μM; read-out: Cell Growth Percent
K-562 = assay: NCI 60 cell line panel (SRB), K-562; format: cell-based; conditions: Homo sapiens, K562; K-562, Leukemia; single dose of 10 μM; read-out: Cell Growth Percent
OVCAR-4 = assay: NCI 60 cell line panel (SRB), OVCAR-4; format: cell-based; conditions: Homo sapiens; OVCAR-4, Ovarian Cancer; single dose of 10 μM; read-out: Cell Growth Percent
PC-3 = assay: NCI 60 cell line panel (SRB), PC-3; format: cell-based; conditions: Homo sapiens; PC-3, Prostate Cancer; single dose of 10 μM; read-out: Cell Growth Percent
TK-10 = assay: NCI 60 cell line panel (SRB), TK-10; format: cell-based; conditions: Homo sapiens; TK-10, Renal Cancer; single dose of 10 μM; read-out: Cell Growth Percent
ACHN = assay: NCI 60 cell line panel (SRB), ACHN; format: cell-based; conditions: Homo sapiens, Renal Cancer, single dose of 10 μM, read-out: Cell Growth Percent
MDA-MB-468 = assay: NCI 60 cell line panel (SRB), MDA-MB-468; format: cell-based; conditions: Homo sapiens; MDA-MB-468, Breast Cancer; single dose of 10 μM; read-out: Cell Growth Percent
DU-145 = assay: NCI 60 cell line panel (SRB), DU-145; format: cell-based; conditions: Homo sapiens; DU-145, Prostate Cancer; single dose of 10 μM; read-out: Cell Growth Percent
LOX IMVI = assay: NCI 60 cell line panel (SRB), LOX IMVI; format: cell-based; conditions: Homo sapiens, Melanoma, single dose of 10 μM, read-out: Cell Growth Percent
SW-620 = assay: NCI 60 cell line panel (SRB), SW-620; format: cell-based; conditions: Homo sapiens; SW-620, Colon Cancer; single dose of 10 μM; read-out: Cell Growth Percent

c-Src, sequence (P12931 whole entry, species assumed): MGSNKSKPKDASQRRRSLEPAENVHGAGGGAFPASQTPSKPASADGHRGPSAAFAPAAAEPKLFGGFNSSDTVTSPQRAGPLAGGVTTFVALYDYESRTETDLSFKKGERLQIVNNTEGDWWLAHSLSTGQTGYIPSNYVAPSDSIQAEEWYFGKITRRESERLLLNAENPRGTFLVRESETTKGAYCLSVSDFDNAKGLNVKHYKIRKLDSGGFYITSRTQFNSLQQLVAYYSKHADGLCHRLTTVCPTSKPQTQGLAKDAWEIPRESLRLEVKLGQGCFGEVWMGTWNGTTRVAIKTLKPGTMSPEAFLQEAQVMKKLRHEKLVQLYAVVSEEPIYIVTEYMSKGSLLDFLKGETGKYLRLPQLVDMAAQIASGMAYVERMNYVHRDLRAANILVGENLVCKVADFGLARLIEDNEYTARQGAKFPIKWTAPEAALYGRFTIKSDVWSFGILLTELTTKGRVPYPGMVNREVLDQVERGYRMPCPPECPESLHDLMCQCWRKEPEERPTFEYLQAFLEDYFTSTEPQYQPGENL

| SMILES | activity at 10 µM (HOP-92) | activity at 10 µM (BT-549) | activity at 10 µM (T-47D) | activity at 10 µM (UACC-257) | activity at 10 µM (SF-268) | activity at 10 µM (UACC-62) | activity at 10 µM (A549/ATCC) | inhibition at 10 µM (c-Src) | activity at 10 µM (CCRF-CEM) | activity at 10 µM (RXF 393) | activity at 10 µM (SN12C) | activity at 10 µM (KM12) | activity at 10 µM [1] | inhibition at 10 µM [1] | activity at 10 µM (OVCAR-8) | activity at 10 µM (NCI-H23) | activity at 10 µM (UO-31) | activity at 10 µM (IGROV1) | activity at 10 µM (K-562) | activity at 10 µM (OVCAR-4) | also measured |
| --- | --- | --- | --- | --- | --- | --- | --- | --- | --- | --- | --- | --- | --- | --- | --- | --- | --- | --- | --- | --- | --- |
| Cc1cccc(NC(=O)Nc2ccc(Oc3ncnc4sc5c(c34)CCCC5)cc2)c1 [Compound 21b] | 80.9% | 71.9% | 49.2% | 107% | 72.6% | 75.7% | 66.5% | 7% | 70% | 79% | 75.9% | 37.3% | 18% | 82% | 85.9% | 72.4% | 59% | 89% | 57.9% | 61.2% | activity at 10 µM (PC-3): 37.5%; activity at 10 µM (TK-10): 72.5%; activity at 10 µM (ACHN): 73.4%; activity at 10 µM (MDA-MB-468): 87.2%; activity at 10 µM (DU-145): 81.3%; activity at 10 µM (LOX IMVI): 77.3%; activity at 10 µM (SW-620): 103% |
| COc1cccc(NC(=O)Nc2ccc(Oc3ncnc4sc5c(c34)CCCC5)cc2)c1 [Compound 21c] | 79% | 88.5% | 41.7% | 100% | 72% | 70.9% | 61.2% | 8% | 64.4% | 74% | 78.2% | 27.5% | 20.9% | 79.2% | 89.9% | 67.7% | 52.5% | 88.7% | 64.6% | 56.6% | activity at 10 µM (PC-3): 45%; activity at 10 µM (TK-10): 73.5%; activity at 10 µM (ACHN): 75%; activity at 10 µM (MDA-MB-468): 69.3%; activity at 10 µM (DU-145): 82.4%; activity at 10 µM (LOX IMVI): 61.5%; activity at 10 µM (SW-620): 96.3% |
